pEC50: −log10 of the molar value.
What was measured:
[1] = tested on: HIV mutant J (131L, L100I, K103N, E138G, Y181C, L214F); assay: Antiviral cellular assay, mutant HIV strain J; assay type: cell-based; conditions: EC50 mutant/EC50 wild type, rounded to nearest integer
Protocol: (§1) HIV- or mock-infected MT4 cells were incubated for five days in the presence of various concentrations of the inhibitor. At the end of the incubation period, the replicating virus in the control cultures has killed all HIV-infected cells in the absence of any inhibitor. Cell viability was determined by measuring the concentration of MTT, a yellow, water soluble tetrazolium dye that is converted to a purple, water insoluble formazan in the mitochondria of living cells only. Upon solubilization of the resulting formazan crystals with isopropanol, the absorbance of the solution was monitored at 540 nm. The values correlate directly to the number of living cells remaining in the culture at the completion of the five day incubation. The inhibitory activity of the compound was monitored on the virus-infected cells and was expressed as EC50 and EC90. These values represent the amount of the compound required to protect 50% and 90%, respectively, of the cells from the cytopathogenic effect of the virus. […] Wherever results are reported as e.g. pEC50 or pCC50 values, the result is expressed as the negative logarithm of the result expressed as EC50 or CC50 respectively. […]
(§2) Row WT: pEC50 against wild type HIV-LAI strain. The toxicity (Tox) is expressed as the pCC50 value as determined with mock transfected cells. ND means not determined.

[2] = tested on: HIV mutant I (K101E, K103N); assay: Antiviral cellular assay, mutant HIV strain I; assay type: cell-based; conditions: EC50 mutant/EC50 wild type, rounded to nearest integer
Protocol: as §1, §2

[3] = tested on: HIV mutant D (L100I; K103N); assay: Antiviral cellular assay, mutant HIV strain D; assay type: cell-based; conditions: EC50 mutant/EC50 wild type, rounded to nearest integer
Protocol: as §1, §2

HIV mutant E (F227C) = assay: Antiviral cellular assay, mutant HIV strain E; assay type: cell-based; conditions: EC50 mutant/EC50 wild type, rounded to nearest integer
Protocol: as §1, §2

[4] = tested on: HIV-1 strain LAI in MT4 cells; assay: Time of addition experiment (p24 ELISA); assay type: cell-based; conditions: 50 μM, MT4 cells infected with HIV-1 LAI
Protocol: A time of addition experiment was performed to determine the mechanism of action of the compounds of the present invention. In the time of addition experiment, compounds are added to cells that were infected with HIV, at time zero (Zero hours). The compounds are subsequently added at different points in time. The time point until which a compound can be added to prevent virus replication, provides an indication of the mechanism of action of the compound.
In the present experiment, MT4 cells were infected with HIV-1 strain LAI at time zero. In different experiments, compounds were subsequently added at the points in time indicated in the X-axis of FIG. 1 (in hours). The compounds were added at the following end concentrations during incubation: DS5000, 1 μM; efavirenz (EFV), 1 μM; saquinavir (SQV), 1 μM; Reference 1, 10 μM (Reference 1 is an integrase inhibitor selected from WO 99/62520 and is present in CAS database: 251963-93-6); Compound 2, 50 μM; Control: normalized virus production. The virus production was determined using p24 monitoring using a kit according to the manufacturers instructions (p24 ELISA kit, catalog reference NEK-050, Perkin Elmer).

HIV mutant F (Y188L) = assay: Antiviral cellular assay, mutant HIV strain F; assay type: cell-based; conditions: EC50 mutant/EC50 wild type, rounded to nearest integer
Protocol: as §1, §2

[5] = tested on: HIV mutant K (multiple RT mutations, Table 1); assay: Antiviral cellular assay, mutant HIV strain K; assay type: cell-based; conditions: EC50 mutant/EC50 wild type, rounded to nearest integer
Protocol: as §1, §2

[6] = tested on: HIV mutant C (L100I; K103N); assay: Antiviral cellular assay, mutant HIV strain C; assay type: cell-based; conditions: EC50 mutant/EC50 wild type, rounded to nearest integer
Protocol: as §1, §2

HIV mutant B (K103N) = assay: Antiviral cellular assay, mutant HIV strain B; assay type: cell-based; conditions: EC50 mutant/EC50 wild type, rounded to nearest integer
Protocol: as §1, §2

Mycobacterium b. = assay: Specificity versus non-viral pathogens: Mycobacterium b.; assay type: cell-based
[7] = Microsomal metabolization, dog liver microsomes; assay type: in vitro ADME; conditions: 10 μM, LC-MS
[8] = tested on: HIV mutant G (V106A, F227L); assay: Antiviral cellular assay, mutant HIV strain G; assay type: cell-based; conditions: EC50 mutant/EC50 wild type, rounded to nearest integer
Protocol: as §1, §2

[9] = Microsomal metabolization, human liver microsomes; assay type: in vitro ADME
Protocol: Aliquots of human liver microsomal fractions (prepared by centrifugation at 12000 g^−1) were transferred into 10 ml glass tubes that are immersed in ice. Subsequently, test compound was added to yield a final concentration of 10 μM test compound. After adding 500 μl of a co-factor solution (cofactor solution: 1 mg/ml glucose-6-phosphate, 1 mg/ml MgCl2.6H2O, 0.5 units/ml glucose-6-phosphate dehydrogenase in 0.5 M phohsphate buffer. pH 7.4), homogenisation buffer (homogenisation buffer: 1,15% KCl in 0.05 M phosphate buffer, pH 7.4) was added to give a final volume of 1 ml. The incubations, 30 or 120 minutes at 37° C., were initiated by adding 10 μl of a solution of nicontinamide adenine dinucleotide phosphate (1.25 mg/ml) in homogenisation buffer. After a preincubation during 5 minutes at 37° C., the tubes were continuously shaken at 100 oscillations/minute in a water bath. The reactions were terminated by addition of an equal volume of DMSO. Blank incubations containing boiled microsomal fractions were incubated under the same conditions as the drug incubations. The degree of metabolism was determined by direct measurement of the residual parent compound in the reaction mixture using LC-MS. In parallel, the residual anti-HIV activity in the reaction mixture was detected using a colorimetric anti-HIV assay as described in Pauwels et al. J. Virol. Methods 1988 (20) 309-321. The residual activity is defined as the percent difference in EC50 between the drug incubations and the blank incubations.
The amount of compound was determined using LC-MS at the time points indicated between brackets. The results are indicated as a % vis-à-vis the amount determined at the start of the experiment (time=0; normalized to 100%).

[10] = tested on: HIV mutant H (K103N, Y181C); assay: Antiviral cellular assay, mutant HIV strain H; assay type: cell-based; conditions: EC50 mutant/EC50 wild type, rounded to nearest integer
Protocol: as §1, §2

[11] = molecular target: T1, HIV reverse transcriptase (Human immunodeficiency virus type 1 group M subtype B, UniProt P04585); assay: In vitro inhibition of HIV reverse transcriptase (kit TRK 1022); assay type: biochemical; conditions: enzyme assay, 4 hours at 37° C.
T1 construct: 5 μl HIV RT enzyme solution; purchased Amersham Life Sciences TRK 1022
Protocol: The assay was run using kit TRK 1022 (Amersham Life Sciences) according to the manufacturer's instructions with slight modifications. Compounds were diluted in steps of ¼ in 100% DMSO and subsequently transferred to Medium A (1/50 dilution; medium A: RPMI 1640+10% FetalClone II+Gentamycin 20 mg/L). 25 μl of compound (in 2% DMSO in Medium A) or 25 μl of 2% DMSO in medium A was added to wells. To each well was added 25.5 μl master mix (master mix: 5 μl primer/template beads, 10 μl assay buffer, 0.5 μl tracer (3H-TTP), 5 μl HIV RT enzyme solution at a final enzyme activity of 15 mU per 50 μl reaction, 5 μl medium A). The plates were sealed, marked as radioactive and incubated during 4 hours at 37° C. Subsequently, 100 μl stop solution was added to each well (except R1). The radioactivity was counted in a TopCount.

HIV mutant A (Y181C) = assay: Antiviral cellular assay, mutant HIV strain A; assay type: cell-based; conditions: EC50 mutant/EC50 wild type, rounded to nearest integer
Protocol: as §1, §2

HIV-2 = assay: Antiviral cellular assay, HIV-2; assay type: cell-based; conditions: Human immunodeficiency virus 2; read-out: pEC50 towards HIV-2 (converted)
Protocol: HIV- or mock-infected MT4 cells were incubated for five days in the presence of various concentrations of the inhibitor. At the end of the incubation period, the replicating virus in the control cultures has killed all HIV-infected cells in the absence of any inhibitor. Cell viability was determined by measuring the concentration of MTT, a yellow, water soluble tetrazolium dye that is converted to a purple, water insoluble formazan in the mitochondria of living cells only. Upon solubilization of the resulting formazan crystals with isopropanol, the absorbance of the solution was monitored at 540 nm. The values correlate directly to the number of living cells remaining in the culture at the completion of the five day incubation. The inhibitory activity of the compound was monitored on the virus-infected cells and was expressed as EC50 and EC90. These values represent the amount of the compound required to protect 50% and 90%, respectively, of the cells from the cytopathogenic effect of the virus. […] Wherever results are reported as e.g. pEC50 or pCC50 values, the result is expressed as the negative logarithm of the result expressed as EC50 or CC50 respectively.
as §2

[12] = tested on: SIV (simian immunodeficiency virus); assay: Antiviral cellular assay, SIV; assay type: cell-based; conditions: read-out: pEC50 towards SIV (converted)

Structure (SMILES): Cn1c2ccccc2c2c1cc(C#N)c(=O)n2-c1ccc([N+](=O)[O-])cc1 [Compound 2, 5-methyl-1-(4-nitro-phenyl)-2-oxo-2,5-dihydro-1H-pyrido[3,2-b]indole-3-carbonitrile]
- fold resistance mutant J (between brackets) [1]: 5
- fold resistance mutant I (between brackets) [2]: 3
- fold resistance mutant D (between brackets) [3]: 2
- fold resistance mutant E (between brackets) (HIV mutant E (F227C)): 3
- time of addition: effect on virus production / mechanism [4]: delayed virus production using a mechanism related to reverse transcriptase
- fold resistance mutant F (between brackets) (HIV mutant F (Y188L)): 2
- fold resistance mutant K (between brackets) [5]: 4
- fold resistance mutant C (between brackets) [6]: 3
- fold resistance mutant B (between brackets) (HIV mutant B (K103N)): 1
- pEC50 (Mycobacterium b.): < 4.49
- DLM (0 min) amount of compound ([7]; 0 min, normalized to 100% at time 0): 100%
- DLM (30 min) amount of compound ([7]; 30 min, % of amount at time 0): 91%
- DLM (120 min) amount of compound ([7]; 120 min, % of amount at time 0): 108%
- fold resistance mutant G (between brackets) [8]: 3
- HLM (0 min) amount of compound ([9]; 10 μM, 0 min, LC-MS, normalized to 100% at time 0): 100%
- HLM (30 min) amount of compound ([9]; 10 μM, 30 min, LC-MS, % of amount at time 0): 98%
- HLM (120 min) amount of compound ([9]; 10 μM, 120 min, LC-MS, % of amount at time 0): 128%
- hepatic first pass metabolization (microsomal) ([9]; liver microsomal fractions): little or no hepatic first pass metabolization
- fold resistance mutant H (between brackets) [10]: 5
- in vitro inhibition of HIV reverse transcriptase [11]: inhibits HIV reverse transcriptase in vitro
- fold resistance mutant A (between brackets) (HIV mutant A (Y181C)): 4
- EC50 (HIV-2): 251 nM
- EC50 [12]: 316 nM
